This is an account of results in patent US20160185774A1, “Anti-Infective Compounds” (priority 2013, published 2016).

Converted amounts (≈) assume the structure as drawn.

One series deals with M. tuberculosis. Put plainly: microbe, parasite or virus in culture. The format is cell-based. The note with it: Mycobacterium tuberculosis, 120 h; read-out: QUM (MIC80).

Molecule `CCc1nc2ccc(Cl)cn2c1C(=O)NCc1ccc(N2CCC(C(=O)Cc3ccc(F)cc3)CC2)cc1` [Compound 244] had a melting point of 216.2 to 220.7 °C.

With `CCc1nc2ccc(Cl)cn2c1C(=O)NCc1cccc(N(C)Cc2ccc(OC(F)(F)F)cc2)c1` [Compound 247], the melting point is > 142.3 °C (dec.). In addition, the MIC80 in the series on M. tuberculosis was in the range of 1 to 20 µM (≈ 0.517 to 10.3 µg/mL).

As to `CCc1nc2ccc(Cl)cn2c1C(=O)NCc1cccc(OCc2ccc(OC(F)(F)F)cc2)c1` [Compound 248], the melting point was > 142.7 °C (dec.). In addition, the MIC80 in the series on M. tuberculosis fell in the range of 1 to 20 µM (≈ 0.504 to 10.1 µg/mL).

`CCc1nc2ccc(Cl)cn2c1C(=O)NCc1cccc(N2CCC(c3ccc(OC(F)(F)F)cc3)CC2)c1` [Compound 249] showed a melting point of 135.5 to 136.4 °C. The MIC80 in the series with M. tuberculosis is greater than 20 µM.

Turning to `CCc1nc2ccc(Cl)cn2c1C(=O)NCc1cccc(CC(=O)Nc2ccc(F)cc2)c1` [Compound 250], the melting point is > 198.8 °C (dec.). Further, the MIC80 with M. tuberculosis is greater than 20 µM.

Consider `CCc1nc2ccc(Cl)cn2c1C(=O)NCc1cccc(N2CCN(c3ccc(OC(F)(F)F)cc3)CC2)c1` [Compound 251], for which the melting point was > 168 °C (dec.). For the same molecule, the MIC80 with M. tuberculosis was 1 to 20 µM (≈ 0.558 to 11.2 µg/mL).

Molecule `CCc1nc2ccc(Cl)cn2c1C(=O)NCc1ccc(CC2CCOCC2)cc1` [Compound 253] came in with a melting point of 132.2 to 133 °C. In addition, in the series on M. tuberculosis, the MIC80 is less than 1 µM.

With `CCc1nc2cc(Cl)ccn2c1C(=O)NCc1ccc(CC2CCOCC2)cc1` [Compound 254], the melting point was > 125.9 °C (dec.). Also, the MIC80 with M. tuberculosis was less than 1 µM.

Take `CCc1nc2ccc(Cl)cn2c1C(=O)NCc1cccc(N2CCC(Oc3ccc(OC(F)(F)F)cc3)CC2)c1` [Compound 255]: the melting point lay within 126.3 to 127.2 °C. The MIC80 with M. tuberculosis is greater than 20 µM.

Molecule `CCc1nc2ccc(Cl)cn2c1C(=O)NCc1cc2cc(Cl)ccc2s1` [Compound 256] showed a melting point greater than 220 °C. Further, in the series on M. tuberculosis, the MIC80 is less than 1 µM.

Consider `CCc1nc2ccccn2c1C(=O)NCc1ccc(C2CCOCC2)cc1` [Compound 257], for which the melting point is > 133.7 °C (dec.). Moreover, the MIC80 in the series with M. tuberculosis was less than 1 µM.

`CCc1nc2ccc(Cl)cn2c1C(=O)NCc1ccc(C2CCOCC2)cc1` [Compound 258]: the melting point is > 195.5 °C (dec.). The MIC80 in the series on M. tuberculosis is less than 1 µM.

As to `CCc1nc2cc(Cl)ccn2c1C(=O)NCc1ccc(C2CCOCC2)cc1` [Compound 259], the melting point was > 156.6 °C (dec.). In addition, the MIC80 in the series on M. tuberculosis is less than 1 µM.

Consider `CCc1nc2ccc(Cl)cn2c1C(=O)NCc1cc2cc(Cl)ccc2o1` [Compound 261], for which the melting point lay in the range of 223.5 to 225.6 °C. Besides, the MIC80 in the series with M. tuberculosis was less than 1 µM.

As for `CCc1nc2ccc(Cl)cn2c1C(=O)NCc1nc2ccc(Cl)cc2n1C` [Compound 262], the melting point is greater than 220 °C. Besides, the MIC80 with M. tuberculosis is greater than 20 µM.

In turn, `CCc1nc2ccc(Cl)cn2c1C(=O)NCc1nc2cc(Cl)ccc2n1C` [Compound 263] came in with a melting point greater than 220 °C. In addition, in the series with M. tuberculosis, the MIC80 is greater than 20 µM.

`CCc1nc2ccc(Cl)cn2c1C(=O)NCc1nc2ccc(Cl)cc2o1` [Compound 264] registered a melting point of 201.1 to 201.8 °C. The MIC80 with M. tuberculosis is 1 to 20 µM (≈ 0.389 to 7.78 µg/mL).

The molecule `CCc1nc2cc(Cl)ccn2c1C(=O)NCc1nc2cc(-c3ccc(OC(F)(F)F)cc3)ccc2o1` [Compound 265] showed a melting point greater than 220 °C. Moreover, the MIC80 with M. tuberculosis was 1 to 20 µM (≈ 0.515 to 10.3 µg/mL).

`CCc1nc2ccc(Cl)cn2c1C(=O)NCc1nc2ccc(Cl)cc2s1` [Compound 266] showed a melting point greater than 220 °C. For the same molecule, the MIC80 in the series with M. tuberculosis was 1 to 20 µM (≈ 0.405 to 8.11 µg/mL).

With `CCc1nc2ccc(F)cn2c1C(=O)NCc1ccc(N2CCC(c3ccc(OC(F)(F)F)cc3)CC2)cc1` [Compound 267], the melting point is > 167.9 °C (dec.). For the same molecule, the MIC80 in the series on M. tuberculosis was less than 1 µM.

As for `CCc1nc2c(F)cccn2c1C(=O)NCc1ccc(N2CCC(c3ccc(OC(F)(F)F)cc3)CC2)cc1` [Compound 268], the melting point is > 177.7 °C (dec.). In addition, the MIC80 with M. tuberculosis is less than 1 µM.

On to `CCc1nc2cc(Cl)ccn2c1C(=O)NCc1ccc(C(=O)N(C)c2ccc(F)cc2)cc1` [Compound 306], for which the MIC80 with M. tuberculosis fell in the range of 1 to 20 µM (≈ 0.465 to 9.3 µg/mL).

As to `CCc1nc2ccc(Cl)cn2c1C(=O)NCc1ccc(N2CCOCC2)c(F)c1` [Compound 307], in the series with M. tuberculosis, the MIC80 is less than 1 µM.

As for `CCc1nc2cc(Cl)ccn2c1C(=O)NCc1ccc(N2CCOCC2)c(F)c1` [Compound 308], the MIC80 in the series with M. tuberculosis is less than 1 µM.

On to `Cc1ccc(C2CCN(c3ccc(CNC(=O)c4c(C)nc5c(F)cccn45)cc3)CC2)cc1` [Compound 309], for which the MIC80 with M. tuberculosis was less than 1 µM.

Consider `Cc1nc2c(F)cccn2c1C(=O)NCc1ccc(N2CCC(c3ccc(C(F)(F)F)cc3)CC2)cc1` [Compound 310], for which the MIC80 with M. tuberculosis is less than 1 µM.

In the case of `Cc1nc2c(F)cccn2c1C(=O)NCc1ccc(N2CCC(c3ccc(F)cc3)CC2)cc1` [Compound 311], the MIC80 in the series on M. tuberculosis was less than 1 µM.

In the case of `Cc1nc2c(F)cccn2c1C(=O)NCc1ccc(N2CCC(c3ccc(OC(F)(F)F)cc3)CC2)cc1` [Compound 312], the MIC80 in the series on M. tuberculosis was less than 1 µM.

For `Cc1nc2ccc(F)cn2c1C(=O)NCc1ccc(N2CCC(c3ccc(F)cc3)CC2)cc1` [Compound 313], the MIC80 with M. tuberculosis is less than 1 µM.

In the case of `Cc1ccc(C2CCN(c3ccc(CNC(=O)c4c(C)nc5ccc(F)cn45)cc3)CC2)cc1` [Compound 314], in the series on M. tuberculosis, the MIC80 was less than 1 µM.

On to `Cc1nc2ccc(F)cn2c1C(=O)NCc1ccc(N2CCC(c3ccc(C(F)(F)F)cc3)CC2)cc1` [Compound 315], for which the MIC80 in the series with M. tuberculosis is less than 1 µM.

For `Cc1nc2ccc(F)cn2c1C(=O)NCc1ccc(N2CCC(c3ccc(OC(F)(F)F)cc3)CC2)cc1` [Compound 316], the MIC80 in the series on M. tuberculosis was less than 1 µM.

With `CCc1nc2ccc(Cl)cn2c1C(=O)NCc1ccc(C(=O)N(C)Cc2ccc(F)cc2)cc1` [Compound 317], in the series with M. tuberculosis, the MIC80 lay in the range of 1 to 20 µM (≈ 0.479 to 9.58 µg/mL).

For `CCc1nc2cc(Cl)ccn2c1C(=O)NCc1ccc(C(=O)N(C)Cc2ccc(F)cc2)cc1` [Compound 318], in the series on M. tuberculosis, the MIC80 was 1 to 20 µM (≈ 0.479 to 9.58 µg/mL).

As for `CCc1nc2ccc(Cl)cn2c1C(=O)NCc1ccc(OCC23CC4CC(CC(C4)C2)C3)cc1` [Compound 319], the MIC80 in the series with M. tuberculosis is less than 1 µM.

On to `CCc1nc2cc(Cl)ccn2c1C(=O)NCc1ccc(OCC23CC4CC(CC(C4)C2)C3)cc1` [Compound 320], for which the MIC80 in the series on M. tuberculosis is less than 1 µM.

Turning to `CCc1nc2ccc(Cl)cn2c1C(=O)NCc1ccc(NC23CC4CC(CC(C4)C2)C3)cc1` [Compound 321], the MIC80 in the series with M. tuberculosis was less than 1 µM.

With `CCc1nc2cc(Cl)ccn2c1C(=O)NCc1ccc(NC23CC4CC(CC(C4)C2)C3)cc1` [Compound 322], in the series on M. tuberculosis, the MIC80 was less than 1 µM.

Regarding `CCc1nc2ccc(Cl)cn2c1C(=O)NCc1ccc(NC2C3CC4CC(C3)CC2C4)cc1` (centres unmarked) [Compound 323], in the series on M. tuberculosis, the MIC80 was less than 1 µM.

Turning to `CCc1nc2cc(Cl)ccn2c1C(=O)NCc1ccc(NC2C3CC4CC(C3)CC2C4)cc1` (centres unmarked) [Compound 324], in the series on M. tuberculosis, the MIC80 is less than 1 µM.

`Cc1nc2ccc(Cl)cn2c1C(=O)NCc1ccc(N2CCC(c3ccc(F)cc3)CC2)cc1` [Compound 325]: the MIC80 in the series with M. tuberculosis is less than 1 µM.

Regarding `Cc1ccc(C2CCN(c3ccc(CNC(=O)c4c(C)nc5ccc(Cl)cn45)cc3)CC2)cc1` [Compound 326], in the series on M. tuberculosis, the MIC80 is less than 1 µM.

With `Cc1nc2ccc(Cl)cn2c1C(=O)NCc1ccc(N2CCC(c3ccc(C(F)(F)F)cc3)CC2)cc1` [Compound 327], the MIC80 in the series with M. tuberculosis is less than 1 µM.

Turning to `Cc1nc2ccc(Cl)cn2c1C(=O)NCc1ccc(N2CCC(c3ccc(OC(F)(F)F)cc3)CC2)cc1` [Compound 328], the MIC80 with M. tuberculosis is less than 1 µM.

Take `CCc1nc2cc(Cl)ccn2c1C(=O)NCc1cccc(C(=O)NCc2ccc(F)cc2)c1` [Compound 329]: in the series on M. tuberculosis, the MIC80 was 1 to 20 µM (≈ 0.465 to 9.3 µg/mL).

Take `CCc1nc2cc(Cl)ccn2c1C(=O)NCc1cccc(C(=O)N(C)Cc2ccc(F)cc2)c1` [Compound 330]: the MIC80 in the series with M. tuberculosis fell in the range of 1 to 20 µM (≈ 0.479 to 9.58 µg/mL).

Regarding `CCc1nc2ccc(Cl)cn2c1C(=O)NCc1ccc2oc(CN3CCOCC3)nc2c1` [Compound 331], in the series with M. tuberculosis, the MIC80 was in the range of 1 to 20 µM (≈ 0.454 to 9.08 µg/mL).

Take `CCc1nc2cc(Cl)ccn2c1C(=O)NCc1ccc2oc(CN3CCOCC3)nc2c1` [Compound 332]: the MIC80 in the series on M. tuberculosis is 1 to 20 µM (≈ 0.454 to 9.08 µg/mL).

On to `CCc1nc2cc(Cl)ccn2c1C(=O)NCc1ccc(-c2ccc(C(=O)O)cc2)cc1` [Compound 335], for which the MIC80 with M. tuberculosis was less than 1 µM.

For `CCc1nc2ccc(Cl)cn2c1C(=O)NCc1ccc(N2CCC(C(=O)OCCN3CCOCC3)CC2)cc1` [Compound 336], in the series with M. tuberculosis, the MIC80 is less than 1 µM.

In the case of `CCc1nc2cc(Cl)ccn2c1C(=O)NCc1ccc(N2CCC(C(=O)OCCN3CCOCC3)CC2)cc1` [Compound 337], the MIC80 in the series on M. tuberculosis is less than 1 µM.

Take `CCC1N=C2C=CC(Cl)=CN2C1C(=O)NCc1ccc2oc(C)nc2c1` (centres unmarked) [Compound 338]: the MIC80 with M. tuberculosis is less than 1 µM.

As for `CCc1nc2cc(Cl)ccn2c1C(=O)NCc1ccc2oc(C)nc2c1` [Compound 339], in the series on M. tuberculosis, the MIC80 was 1 to 20 µM (≈ 0.369 to 7.38 µg/mL).

With `CCc1nc2ccc(Cl)cn2c1C(=O)NCc1ccc(N2CC[C@@H](Oc3ccc(Cl)cc3)C2)cc1` [Compound 340], in the series with M. tuberculosis, the MIC80 is less than 1 µM.

Regarding `CCc1nc2cc(Cl)ccn2c1C(=O)NCc1ccc(N2CC[C@@H](Oc3ccc(Cl)cc3)C2)cc1` [Compound 341], the MIC80 in the series on M. tuberculosis was less than 1 µM.

As to `CCc1nc2ccc(Cl)cn2c1C(=O)NCc1ccc(N2CC[C@H](Oc3ccc(Cl)cc3)C2)cc1` [Compound 342], the MIC80 in the series with M. tuberculosis is less than 1 µM.

For `CCc1nc2cc(Cl)ccn2c1C(=O)NCc1ccc(N2CC[C@H](Oc3ccc(Cl)cc3)C2)cc1` [Compound 343], the MIC80 in the series with M. tuberculosis was less than 1 µM.

With `CCc1nc2ccc(Cl)cn2c1C(=O)NCc1ccc(N2CCC(c3ccc(C(=O)OC)cc3)CC2)cc1` [Compound 344], the MIC80 in the series with M. tuberculosis was less than 1 µM.

In the case of `CCc1nc2ccc(Cl)cn2c1C(=O)NCc1ccc(N2CCC(c3ccc(CO)cc3)CC2)cc1` [Compound 345], the MIC80 in the series on M. tuberculosis was less than 1 µM.

For the molecule `CCc1nc2ccc(Cl)cn2c1C(=O)NCc1ccc(N2CCC(c3ccc(C=O)cc3)CC2)cc1` [Compound 346], in the series on M. tuberculosis, the MIC80 is less than 1 µM.

On to `Cc1nc2cc(F)ccn2c1C(=O)NCc1ccc(N2CCC(c3ccc(Cl)cc3)CC2)cc1` [Compound 348], for which the MIC80 with M. tuberculosis was less than 1 µM.

Consider `Cc1nc2cc(F)ccn2c1C(=O)NCc1ccc(N2CCC(c3ccc(C(F)(F)F)cc3)CC2)cc1` [Compound 349], for which the MIC80 with M. tuberculosis is less than 1 µM.

On to `Cc1nc2cc(F)ccn2c1C(=O)NCc1ccc(N2CCC(c3ccc(OC(F)(F)F)cc3)CC2)cc1` [Compound 350], for which the MIC80 with M. tuberculosis was less than 1 µM.
